Values after ≈ are worked out from the molar mass of the structure shown.
How the values were obtained:
Format in all cases: functional
[1] = test system: Mycobacterium tuberculosis; experiment: Antimycobacterial activity against INH-resistant Mycobacterium tuberculosis by agar dilution method
[2] = test system: Mycobacterium tuberculosis; experiment: Antimycobacterial activity against INH-resistant Mycobacterium tuberculosis by agar dilution method at 6.25 ug/ml
[3] = test system: Mycobacterium tuberculosis; experiment: Antimycobacterial activity against INH-resistant Mycobacterium tuberculosis by agar dilution method above 6.25 ug/ml

SMILES	MIC [1] [µg/mL]	inhibition at 6.25 µg/mL [2] [%]	Inhibition [3] [%]
COc1cc(C2=NN(C(=O)COc3ccc4ccccc4c3)C(c3ccc(O)cc3)C2)c(C)cc1OCC(=O)O (stereo not drawn)	0.7 (≈ 1.29 µM)	99	
COc1cc(C2=NN(C(=O)COc3cccc4ccccc34)C3CCCC23)c(C)cc1OCC(=O)O (stereo not drawn)	> 6.25		50
COc1cc(C2=NN(C(=O)COc3cccc4ccccc34)C(Cc3ccccc3)C2)c(C)cc1OCC(=O)O (stereo not drawn)	> 6.25		20
COc1cc(C2=NN(C(=O)COc3ccc4ccccc4c3)C3CCCC23)c(C)cc1OCC(=O)O (stereo not drawn)	6.25 (≈ 12.8 µM)		94
COc1cc(C2=NN(C(=O)COc3ccccc3)C(c3ccc(O)cc3)C2)c(C)cc1OCC(=O)O (stereo not drawn)	0.64 (≈ 1.3 µM)	99	
COc1cc(C2=NN(C(=O)Cc3ccccc3)C3CCCC23)c(C)cc1OCC(=O)O (stereo not drawn)	> 6.25		24
NNC(=O)c1ccncc1 [ISONIAZID]	1.56 (≈ 11.4 µM)	90	
COc1cc(C2=NN(C(=O)c3ccc([N+](=O)[O-])cc3)C3CCCC23)c(C)cc1OCC(=O)O (stereo not drawn)	> 6.25		30
COc1cc(C2=NN(C(=O)COc3ccccc3)C3CCCC23)c(C)cc1OCC(=O)O (stereo not drawn)	> 6.25		85
COc1cc(C2=NN(C(=O)c3ccccc3)C(Cc3ccccc3)C2)c(C)cc1OCC(=O)O (stereo not drawn)	> 6.25		18
COc1cc(C2=NN(C(=O)Cc3ccccc3)C(Cc3ccccc3)C2)c(C)cc1OCC(=O)O (stereo not drawn)	> 6.25		34
COc1cc(C2=NN(C(=O)c3ccccc3)C3CCCC23)c(C)cc1OCC(=O)O (stereo not drawn)	> 6.25		42
COc1cc(C2=NN(C(=O)Cc3ccccc3)C(c3ccc(O)cc3)C2)c(C)cc1OCC(=O)O (stereo not drawn)	> 6.25		22
COc1cc(C2=NN(C(=O)c3ccccc3)C(c3ccc(O)cc3)C2)c(C)cc1OCC(=O)O (stereo not drawn)	> 6.25		72
COc1cc(C2=NN(C(=O)c3ccc([N+](=O)[O-])cc3)C(c3ccc(O)cc3)C2)c(C)cc1OCC(=O)O (stereo not drawn)	6.25 (≈ 12.4 µM)		70
COc1cc(C2=NN(C(=O)COc3ccccc3)C(Cc3ccccc3)C2)c(C)cc1OCC(=O)O (stereo not drawn)	> 6.25	92	
COc1cc(C2=NN(C(=O)c3ccc([N+](=O)[O-])cc3)C(Cc3ccccc3)C2)c(C)cc1OCC(=O)O (stereo not drawn)	> 6.25		50
COc1cc(C2=NN(C(=O)COc3ccc4ccccc4c3)C(Cc3ccccc3)C2)c(C)cc1OCC(=O)O (stereo not drawn)	0.94 (≈ 1.75 µM)	90	
COc1cc(C2=NN(C(=O)COc3cccc4ccccc34)C(c3ccc(O)cc3)C2)c(C)cc1OCC(=O)O (stereo not drawn)	> 6.25		58

From ChEMBL document CHEMBL1146905, “Synthesis and evaluation of phenoxy acetic acid derivatives as [corrected] anti-mycobacterial agents” (2006)
